{
  "source": "patent US20190083407A1",
  "about": "“CRYSTALLIZATION METHOD AND BIOAVAILABILITY” (priority 2015, published 2019)",
  "key": {"[1]": {"assay": "Aqueous solubility at room temperature", "details": "for Aqueous solubility, mMol/L (complex): as complex"}, "[2]": {"details": "72 hr dog study; cited from earlier work"}, "[3]": {"details": "cited from earlier work; for Mortality: solutions in capsules"}, "[4]": {"details": "FDA Summary Basis of Approval; cited from earlier work"}, "[5]": {"assay": "Rat PK study: plasma concentrations of zoledronic acid from pure zoledronic acid and complexes delivered IV, oral gavage and ID", "assay_type": "in vivo, Sprague-Dawley Rats", "method": "These studies were conducted on rats and dogs as they are suitable animal models for zoledronic acid. This can be attributed to the fact that both animals have historically been used in the safety evaluation and PK screening studies and are recommended by appropriate regulatory agencies. […] Pure zoledronic acid and zoledronic acid complexes prepared by the methods in this invention were delivered to the rats and dogs through IV or oral routes. Additional tests included ID administration in rats and administration of enteric coated capsules in dogs. All compounds delivered were well tolerated by the animals with no adverse events or physical abnormalities noticed. […] USA. Some animals have surgical catheters (jugular vein and intraduodenum) were implanted to the animals prior to the studies. […] Surgical catheters (jugular vein) were implanted prior to the studies. […] Routes of Rat Dosing: Zoledronic acid and its complex formulations were administered through IV, oral and ID. […] The dose of each rat was calculated on a per rat basis (not on an average weight of all the rats in the lot). • ii. Oral gavage administration: solid suspensions were administered. The dose of each rat was calculated on a per rat basis (not on an average weight of all the rats in the lot). […] Duodenal cannula administration: solid suspensions were administered. The dose of each rat was calculated on a per rat basis (not on an average weight of all the rats in the lot). […] Groups: Two major groups of animals were selected for the study. • Group 1 consists of rat studies. […] Group I (IV Administration): Group Members, Designated IV Doses are Listed Below: [table] Group II (oral gavage): Group designations and oral doses are listed below: […] Group III (ID Administration): Group Designations and Oral Doses are Listed Below: [table] Rat blood sample collection, handling and analysis: […] Samples were thawed on the day of analysis and the amount of zoledronic acid in the samples was quantified by analyzed by LC/MS/MS method. Rat study: […]"}},
  "note": "Like-named read-outs stand apart in the source and are kept apart here.",
  "data": [
    {"compound": "NCCCCC(N)C(=O)O.O.O=P(O)(O)C(O)(Cn1ccnc1)P(=O)(O)O", "note": "[ZA: DL-Lysine monohydrate]", "values": [
      {"measurement": "Aqueous solubility, Conc.", "setting": "[1]", "value": 13.9, "unit": "mg/mL"},
      {"measurement": "Aqueous solubility, mMol/L (complex)", "setting": "[1]", "value": 31.86, "unit": "mmol/L"}
    ]},
    {"compound": "NCCCCC(N)C(=O)O.O.O.O=P(O)(O)C(O)(Cn1ccnc1)P(=O)(O)O", "note": "[ZA: L-Lysine dihydrate]", "values": [
      {"measurement": "Aqueous solubility, Conc.", "setting": "[1]", "value": 8.22, "unit": "mg/mL"},
      {"measurement": "Aqueous solubility, mMol/L (complex)", "setting": "[1]", "value": 18.09, "unit": "mmol/L"}
    ]},
    {"compound": "O=P(O)(O)C(O)(Cn1ccnc1)P(=O)(O)O", "note": "[Zoledronic acid, (1-hydroxy-2-imidazol-1-yl-1-phosphono-ethyl)phosphonic acid]", "values": [
      {"measurement": "AUC", "setting": "[2]", "value": 2217, "unit": "ng·h/mL"},
      {"measurement": "Mortality (dogs)", "setting": "[3]; 10 mg/kg administered directly to the stomach", "value": "⅓"},
      {"measurement": "Mortality (dogs)", "setting": "[3]; 25 mg/kg, same formulation", "value": "3/3"},
      {"measurement": "AUC 0-24 hr", "setting": "[3]; dogs, 10 mg/kg administered directly to the stomach", "value": 1254, "unit": "ng·h/mL"},
      {"measurement": "AUC 0-24", "setting": "[3]; dogs, 25 mg/kg, same formulation", "value": 7319, "unit": "ng·h/mL"},
      {"measurement": "Mortality", "setting": "[3]; dogs, 10 mg/kg/day, one formulation", "value": 30, "unit": "%"},
      {"measurement": "Mortality", "setting": "[3]; dogs, another formulation, 25 mg/Kg", "value": 100, "unit": "%"},
      {"measurement": "Oral bioavailability", "setting": "[4]", "value": "less than 1%"}
    ]},
    {"compound": "O=P([O-])(O)C(O)(Cn1ccnc1)P(=O)([O-])O.[Na+].[Na+]", "note": "[disodium zoledronate salt]", "values": [
      {"measurement": "AUC", "setting": "[2]", "value": 4073, "unit": "ng·h/mL"}
    ]},
    {"compound": "Zoledronic, nicotinamide, and water complex", "values": [
      {"measurement": "Average plasma concentration of 3 rats", "setting": "[5]; ID 5 mg/kg zoledronic acid equivalent, PEG 400, 8 hour", "value": 0.00, "unit": "ng/mL"},
      {"measurement": "Average plasma concentration of 3 rats", "setting": "[5]; ID 5 mg/kg zoledronic acid equivalent, PEG 400, 24 hour", "value": 0.00, "unit": "ng/mL"},
      {"measurement": "Average plasma concentration of 3 rats", "setting": "[5]; PO 5 mg/kg zoledronic acid equivalent, PEG 400, 24 hour", "value": 0.00, "unit": "ng/mL"}
    ]}
  ]
}
